Measured values reported in ChEMBL document CHEMBL1649532, “Trypanocidal activity of 8-methyl-5'-{[(Z)-4-aminobut-2-enyl]-(methylamino)}adenosine (Genz-644131), an adenosylmethionine decarboxylase inhibitor” (Antimicrob Agents Chemother, 2009).
In brackets after ≈: the same amount, converted by molar mass. Activity calls are given as the source filed them. The calls are words filed in the database; no cut-off is given here.

Legend:
[1] = system: Trypanosoma brucei brucei; assay: Trypanocidal activity against Trypanosoma brucei brucei EATRO infected in mouse assessed as protection against trypanosomal infection at 5 mg/kg, ip QD for 4 days; assay type: functional, organism-based; parameters: dose 5 mg/kg
[2] = system: Trypanosoma brucei brucei; assay: Trypanocidal activity against Trypanosoma brucei brucei EATRO infected in mouse assessed as protection against trypanosomal infection at 10 mg/kg, ip BID for 4 days; assay type: functional, organism-based; parameters: dose 10 mg/kg
[3] = system: Trypanosoma brucei brucei; assay: Trypanocidal activity against Trypanosoma brucei brucei EATRO after 48 hrs; assay type: functional, organism-based
[4] = system: Trypanosoma brucei rhodesiense; assay: Trypanocidal activity against Trypanosoma brucei rhodesiense KETRI1992 infected in mouse assessed as average survival time at 25 mg/kg, ip QD administered 24 hrs postinfection; assay type: functional; details: route intraperitoneal
[5] = system: Trypanosoma brucei rhodesiense; assay: Trypanocidal activity against Trypanosoma brucei rhodesiense KETRI1992 infected in mouse assessed as average survival time at 10 mg/kg, ip BID administered 24 hrs postinfection; assay type: functional; details: route intraperitoneal
[6] = system: Trypanosoma brucei rhodesiense; assay: Trypanocidal activity against Trypanosoma brucei rhodesiense KETRI1992 infected in mouse assessed as protection against trypanosomal infection at 10 mg/kg, ip QD administered 24 hrs postinfection; assay type: functional, organism-based; parameters: dose 10 mg/kg
[7] = system: Trypanosoma brucei brucei; assay: Trypanocidal activity against Trypanosoma brucei brucei EATRO infected in mouse assessed as mean survival time at 10 mg/kg, ip QD for 4 days; assay type: functional; details: route intraperitoneal
[8] = system: Trypanosoma brucei rhodesiense; assay: Trypanocidal activity against Trypanosoma brucei rhodesiense KETRI243 infected in mouse assessed as protection against trypanosomal infection at 10 mg/kg, ip BID administered 24 hrs postinfection; assay type: functional, organism-based; parameters: dose 10 mg/kg
[9] = system: Trypanosoma brucei rhodesiense; assay: Trypanocidal activity against Trypanosoma brucei rhodesiense KETRI1992 infected in mouse assessed as protection against trypanosomal infection at 50 mg/kg, ip QD administered 24 hrs postinfection; assay type: functional, organism-based; parameters: dose 50 mg/kg
[10] = system: Trypanosoma brucei rhodesiense; assay: Trypanocidal activity against Trypanosoma brucei rhodesiense KETRI2002 infected in mouse assessed as cure rate at 50 mg/kg, ip QD administered 24 hrs postinfection; assay type: functional; details: route intraperitoneal
[11] = system: Trypanosoma brucei rhodesiense; assay: Trypanocidal activity against Trypanosoma brucei rhodesiense KETRI243 infected in mouse assessed as average survival time at 50 mg/kg, ip QD administered 24 hrs postinfection; assay type: functional; details: route intraperitoneal
[12] = system: Trypanosoma brucei rhodesiense; assay: Trypanocidal activity against Trypanosoma brucei rhodesiense KETRI2002 infected in mouse assessed as average survival time at 50 mg/kg, ip BID administered 24 hrs postinfection; assay type: functional; details: route intraperitoneal
[13] = system: Trypanosoma brucei rhodesiense; assay: Trypanocidal activity against Trypanosoma brucei rhodesiense KETRI243 after 48 hrs; assay type: functional, organism-based; details: KETRI243, 48 h
[14] = system: Trypanosoma brucei rhodesiense; assay: Trypanocidal activity against Trypanosoma brucei rhodesiense KETRI1992 infected in mouse assessed as cure rate at 25 mg/kg, ip BID administered 24 hrs postinfection; assay type: functional; details: route intraperitoneal
[15] = system: Trypanosoma brucei rhodesiense; assay: Trypanocidal activity against Trypanosoma brucei rhodesiense KETRI243 infected in mouse assessed as protection against trypanosomal infection at 25 mg/kg, ip QD administered 24 hrs postinfection; assay type: functional, organism-based; parameters: dose 25 mg/kg
[16] = system: Trypanosoma brucei rhodesiense; assay: Trypanocidal activity against Trypanosoma brucei rhodesiense KETRI243 infected in mouse assessed as protection against trypanosomal infection at 10 mg/kg, ip QD administered 24 hrs postinfection; assay type: functional, organism-based; parameters: dose 10 mg/kg
[17] = system: Trypanosoma brucei rhodesiense; assay: Ratio of Kinact to Kiapp for Trypanosoma brucei rhodesiense AdoMetDC
[18] = system: Trypanosoma brucei brucei; assay: Trypanocidal activity against Trypanosoma brucei brucei EATRO infected in mouse assessed as protection against trypanosomal infection at 50 mg/kg, ip QD for 4 days; assay type: functional, organism-based; parameters: dose 50 mg/kg
[19] = system: Trypanosoma brucei brucei; assay: Trypanocidal activity against Trypanosoma brucei brucei 667 infected in mouse assessed as average day of relapse of trypanosomal infection at 50 mg/kg, ip BID for 7 days; assay type: functional; details: route intraperitoneal
[20] = system: Trypanosoma brucei brucei; assay: Trypanocidal activity against Trypanosoma brucei brucei 667 infected in mouse assessed as average day of relapse of trypanosomal infection at 10 mg/kg, ip BID for 21 days; assay type: functional; details: route intraperitoneal
[21] = system: Trypanosoma brucei brucei; assay: Trypanocidal activity against Trypanosoma brucei brucei EATRO infected in mouse assessed as protection against trypanosomal infection at 2 mg/kg, ip QD for 4 days; assay type: functional, organism-based; parameters: dose 2 mg/kg
[22] = system: Trypanosoma brucei rhodesiense; assay: Trypanocidal activity against Trypanosoma brucei rhodesiense KETRI2002 infected in mouse assessed as protection against trypanosomal infection at 10 mg/kg, ip QD administered 24 hrs postinfection; assay type: functional, organism-based; parameters: dose 10 mg/kg
[23] = system: Trypanosoma brucei brucei; assay: Trypanocidal activity against Trypanosoma brucei brucei EATRO infected in mouse assessed as protection against trypanosomal infection at 10 mg/kg, ip QD for 4 days; assay type: functional, organism-based; parameters: dose 10 mg/kg
[24] = system: Trypanosoma brucei brucei; assay: Trypanocidal activity against Trypanosoma brucei brucei EATRO infected in mouse assessed as mean survival time at 2 mg/kg, ip BID for 4 days; assay type: functional; details: route intraperitoneal
[25] = system: Trypanosoma brucei brucei; assay: Trypanocidal activity against Trypanosoma brucei brucei EATRO infected in mouse assessed as protection against trypanosomal infection at 25 mg/kg, ip BID for 4 days; assay type: functional, organism-based; parameters: dose 25 mg/kg
[26] = system: Trypanosoma brucei brucei; assay: Trypanocidal activity against Trypanosoma brucei brucei EATRO infected in mouse assessed as mean survival time at 25 mg/kg, ip QD for 4 days; assay type: functional; details: route intraperitoneal
[27] = system: Trypanosoma brucei rhodesiense; assay: Trypanocidal activity against Trypanosoma brucei rhodesiense KETRI1992 infected in mouse assessed as protection against trypanosomal infection at 10 mg/kg, ip BID administered 24 hrs postinfection; assay type: functional, organism-based; parameters: dose 10 mg/kg
[28] = system: Trypanosoma brucei brucei; assay: Trypanocidal activity against Trypanosoma brucei brucei 667 infected in mouse assessed as average day of relapse of trypanosomal infection at 100 mg/kg, ip BID for 14 days; assay type: functional; details: route intraperitoneal
[29] = system: Trypanosoma brucei brucei; assay: Trypanocidal activity against Trypanosoma brucei brucei 667 infected in mouse assessed as average day of relapse of trypanosomal infection at 25 mg/kg, ip BID for 14 days; assay type: functional; details: route intraperitoneal
[30] = system: Trypanosoma brucei rhodesiense; assay: Trypanocidal activity against Trypanosoma brucei rhodesiense KETRI1992 infected in mouse assessed as average survival time at 10 mg/kg, ip QD administered 24 hrs postinfection; assay type: functional; details: route intraperitoneal
[31] = system: Trypanosoma brucei rhodesiense; assay: Trypanocidal activity against Trypanosoma brucei rhodesiense KETRI1992 infected in mouse assessed as protection against trypanosomal infection at 25 mg/kg, ip QD administered 24 hrs postinfection; assay type: functional, organism-based; parameters: dose 25 mg/kg
[32] = system: Trypanosoma brucei brucei; assay: Trypanocidal activity against Trypanosoma brucei brucei EATRO infected in mouse assessed as protection against trypanosomal infection at 50 mg/kg, ip BID for 4 days; assay type: functional, organism-based; parameters: dose 50 mg/kg

## Cc1nc2c(N)ncnc2n1[C@@H]1O[C@H](CN(C)C/C=C\CN)[C@@H](O)[C@H]1O
[1]
  Activity: Active
[2]
  Activity: Active
[3]
  IC50: 0.58 ng/mL (≈ 1.6 nM)
[4]
  MST: 18.6 days
[5]
  MST: 20.4 days
[6]
  Activity: inactive
[7]
  MST: >35 days
[8]
  Activity: inactive
[9]
  Activity: inactive
[10]
  Activity: 80%
[11]
  MST: 17.2 days
[12]
  MST: 22 days
[13]
  IC50: 3.75 ng/mL (≈ 10.3 nM)
[14]
  Activity: 60%
[15]
  Activity: inactive
[16]
  Activity: inactive
[17]
  Activity: 7.8 min⁻¹ M⁻¹
[18]
  Activity: Active
[19]
  MST: 59 days
[20]
  MST: 61.8 days
[21]
  Activity: Active
[22]
  Activity: inactive
[23]
  Activity: Active
[24]
  MST: >35 days
[25]
  Activity: Active
[26]
  MST: >35 days
[27]
  Activity: inactive
[28]
  MST: 72 days
[29]
  MST: 70.3 days
[30]
  MST: 16.6 days
[31]
  Activity: inactive
[32]
  Activity: Active
